{"source": "paper PMC7026418", "about": "“The kinase polypharmacology landscape of clinical PARP inhibitors” (Scientific Reports, 2020)", "assay_in_all_cases": "biochemical", "design_in_all_cases": "DiscoveRx KINOMEscan active site-directed competition binding; percent of control kinase bound to immobilised ligand", "key": {"MST1R": {"molecular_target": "MST1R (Homo sapiens, UniProt Q04912)", "sequence (Q04912 whole entry)": "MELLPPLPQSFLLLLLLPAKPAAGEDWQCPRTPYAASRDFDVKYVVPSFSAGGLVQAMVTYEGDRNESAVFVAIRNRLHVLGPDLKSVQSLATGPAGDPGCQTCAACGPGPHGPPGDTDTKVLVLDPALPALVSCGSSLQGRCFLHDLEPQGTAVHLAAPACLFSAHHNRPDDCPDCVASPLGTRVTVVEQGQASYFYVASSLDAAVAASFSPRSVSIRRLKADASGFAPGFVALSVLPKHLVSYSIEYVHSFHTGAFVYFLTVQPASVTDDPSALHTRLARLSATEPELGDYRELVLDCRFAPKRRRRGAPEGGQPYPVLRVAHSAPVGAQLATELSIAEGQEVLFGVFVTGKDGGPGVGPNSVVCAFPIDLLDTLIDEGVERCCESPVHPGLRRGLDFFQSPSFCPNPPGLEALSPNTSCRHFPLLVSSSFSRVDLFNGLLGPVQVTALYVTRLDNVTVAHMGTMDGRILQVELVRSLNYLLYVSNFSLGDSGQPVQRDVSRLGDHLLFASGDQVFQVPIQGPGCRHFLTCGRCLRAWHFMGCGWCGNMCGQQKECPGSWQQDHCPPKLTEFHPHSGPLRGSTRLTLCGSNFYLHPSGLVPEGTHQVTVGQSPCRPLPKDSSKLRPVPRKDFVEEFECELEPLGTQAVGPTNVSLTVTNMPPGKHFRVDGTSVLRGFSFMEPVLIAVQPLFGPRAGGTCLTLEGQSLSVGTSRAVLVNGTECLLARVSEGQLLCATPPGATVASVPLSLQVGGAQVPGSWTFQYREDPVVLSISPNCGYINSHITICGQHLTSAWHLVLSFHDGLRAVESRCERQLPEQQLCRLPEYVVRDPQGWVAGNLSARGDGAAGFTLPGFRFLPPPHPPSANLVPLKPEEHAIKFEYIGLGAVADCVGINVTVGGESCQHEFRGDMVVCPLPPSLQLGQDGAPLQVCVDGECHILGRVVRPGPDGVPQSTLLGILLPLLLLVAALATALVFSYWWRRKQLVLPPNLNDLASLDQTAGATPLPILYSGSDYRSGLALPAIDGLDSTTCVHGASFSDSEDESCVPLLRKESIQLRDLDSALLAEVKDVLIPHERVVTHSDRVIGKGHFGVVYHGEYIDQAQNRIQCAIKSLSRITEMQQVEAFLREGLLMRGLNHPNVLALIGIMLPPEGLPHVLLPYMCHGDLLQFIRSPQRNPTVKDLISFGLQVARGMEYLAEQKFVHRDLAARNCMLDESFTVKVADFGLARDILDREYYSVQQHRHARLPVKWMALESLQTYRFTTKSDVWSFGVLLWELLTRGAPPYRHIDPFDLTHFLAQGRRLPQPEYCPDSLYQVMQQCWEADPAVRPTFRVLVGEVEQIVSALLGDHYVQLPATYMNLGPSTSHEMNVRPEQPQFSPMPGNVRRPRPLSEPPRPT"}, "ERK1": {"molecular_target": "T1, ERK1 (Homo sapiens, UniProt P27361)", "T1 construct": "gene MAPK3", "T1 sequence (P27361 whole entry)": "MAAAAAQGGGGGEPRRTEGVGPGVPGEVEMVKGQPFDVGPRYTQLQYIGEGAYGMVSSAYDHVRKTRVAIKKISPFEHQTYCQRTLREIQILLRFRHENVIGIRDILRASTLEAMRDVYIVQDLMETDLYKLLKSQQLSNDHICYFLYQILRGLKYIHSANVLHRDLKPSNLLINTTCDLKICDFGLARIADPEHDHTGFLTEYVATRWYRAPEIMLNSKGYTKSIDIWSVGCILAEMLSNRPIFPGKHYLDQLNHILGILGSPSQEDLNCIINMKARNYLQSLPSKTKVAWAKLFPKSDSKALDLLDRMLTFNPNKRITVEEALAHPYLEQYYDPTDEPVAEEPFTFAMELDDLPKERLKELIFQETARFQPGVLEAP"}, "GAK": {"molecular_target": "T2, GAK (Homo sapiens, UniProt O14976)", "T2 sequence (O14976 1-1311)": "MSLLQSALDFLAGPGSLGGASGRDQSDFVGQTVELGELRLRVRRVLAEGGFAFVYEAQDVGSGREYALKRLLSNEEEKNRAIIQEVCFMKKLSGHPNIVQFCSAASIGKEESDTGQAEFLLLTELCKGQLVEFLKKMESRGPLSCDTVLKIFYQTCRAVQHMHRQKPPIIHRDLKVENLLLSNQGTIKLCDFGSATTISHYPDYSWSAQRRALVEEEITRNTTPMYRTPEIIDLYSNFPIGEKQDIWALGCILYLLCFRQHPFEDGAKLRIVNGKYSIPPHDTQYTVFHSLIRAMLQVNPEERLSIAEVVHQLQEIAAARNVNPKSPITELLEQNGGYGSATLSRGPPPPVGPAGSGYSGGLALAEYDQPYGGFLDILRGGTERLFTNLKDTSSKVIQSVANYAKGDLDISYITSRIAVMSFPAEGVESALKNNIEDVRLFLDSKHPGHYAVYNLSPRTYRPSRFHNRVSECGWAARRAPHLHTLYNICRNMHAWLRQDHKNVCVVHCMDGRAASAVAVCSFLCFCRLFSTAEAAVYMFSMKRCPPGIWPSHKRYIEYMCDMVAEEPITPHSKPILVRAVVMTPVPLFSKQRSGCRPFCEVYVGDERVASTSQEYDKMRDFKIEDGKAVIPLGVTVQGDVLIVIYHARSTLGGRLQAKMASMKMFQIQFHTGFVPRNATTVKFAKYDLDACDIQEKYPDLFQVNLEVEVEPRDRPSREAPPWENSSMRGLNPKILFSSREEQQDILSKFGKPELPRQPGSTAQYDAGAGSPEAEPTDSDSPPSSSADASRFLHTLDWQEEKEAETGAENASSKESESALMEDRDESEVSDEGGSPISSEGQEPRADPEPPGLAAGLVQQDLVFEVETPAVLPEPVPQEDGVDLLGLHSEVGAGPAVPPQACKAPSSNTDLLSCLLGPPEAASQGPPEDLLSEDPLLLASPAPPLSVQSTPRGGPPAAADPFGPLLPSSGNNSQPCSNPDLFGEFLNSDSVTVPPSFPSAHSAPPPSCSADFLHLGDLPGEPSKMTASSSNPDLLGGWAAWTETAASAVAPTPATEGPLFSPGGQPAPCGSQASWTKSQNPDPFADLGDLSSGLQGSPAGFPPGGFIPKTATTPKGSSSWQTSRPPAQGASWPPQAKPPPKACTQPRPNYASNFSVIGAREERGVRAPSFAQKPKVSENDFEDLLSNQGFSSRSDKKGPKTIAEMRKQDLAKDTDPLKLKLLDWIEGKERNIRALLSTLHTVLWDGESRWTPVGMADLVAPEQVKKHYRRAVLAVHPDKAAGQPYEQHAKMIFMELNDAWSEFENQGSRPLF"}, "EPHA3": {"molecular_target": "T3, EPHA3 (Homo sapiens, UniProt P29320)", "T3 sequence (P29320 1-983)": "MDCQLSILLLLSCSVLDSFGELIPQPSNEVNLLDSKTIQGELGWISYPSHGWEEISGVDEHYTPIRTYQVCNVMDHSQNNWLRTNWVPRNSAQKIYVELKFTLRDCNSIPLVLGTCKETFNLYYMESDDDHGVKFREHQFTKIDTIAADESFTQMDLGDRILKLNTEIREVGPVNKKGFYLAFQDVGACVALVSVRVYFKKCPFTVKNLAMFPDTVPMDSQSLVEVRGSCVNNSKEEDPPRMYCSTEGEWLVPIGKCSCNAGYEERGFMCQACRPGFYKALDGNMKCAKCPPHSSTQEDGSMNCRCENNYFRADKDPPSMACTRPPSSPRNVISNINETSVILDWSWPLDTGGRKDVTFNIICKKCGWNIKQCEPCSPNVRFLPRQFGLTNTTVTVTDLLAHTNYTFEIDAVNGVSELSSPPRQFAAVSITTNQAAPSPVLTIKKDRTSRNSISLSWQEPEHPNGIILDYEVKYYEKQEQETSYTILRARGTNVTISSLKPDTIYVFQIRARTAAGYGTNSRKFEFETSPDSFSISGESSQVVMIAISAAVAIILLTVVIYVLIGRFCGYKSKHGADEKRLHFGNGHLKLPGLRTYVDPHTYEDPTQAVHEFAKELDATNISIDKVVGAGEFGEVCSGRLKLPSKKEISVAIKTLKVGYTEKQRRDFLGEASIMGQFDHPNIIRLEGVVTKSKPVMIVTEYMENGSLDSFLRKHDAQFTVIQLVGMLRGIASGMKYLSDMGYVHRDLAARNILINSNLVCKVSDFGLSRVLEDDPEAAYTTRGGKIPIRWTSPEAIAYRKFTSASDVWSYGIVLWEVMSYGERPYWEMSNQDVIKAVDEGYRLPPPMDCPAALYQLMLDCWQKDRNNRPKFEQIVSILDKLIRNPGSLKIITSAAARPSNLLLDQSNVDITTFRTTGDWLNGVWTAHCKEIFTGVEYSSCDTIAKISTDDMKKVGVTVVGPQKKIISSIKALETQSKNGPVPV"}, "[1]": {"conditions": "read-out: Talazoparib (BMN 673) / %Ctrl @ 10000nM"}, "[2]": {"conditions": "read-out: Olaparib / %Ctrl @ 10000nM"}, "[3]": {"conditions": "read-out: Niraparib (MK-4827) / %Ctrl @ 10000nM"}, "[4]": {"conditions": "read-out: Rucaparib / %Ctrl @ 10000nM, binding competition, % of control"}}, "note": "Like-named read-outs stand apart in the source and are kept apart here."}
{"smiles": "Cn1ncnc1[C@H]1c2n[nH]c(=O)c3cc(F)cc(c23)N[C@@H]1c1ccc(F)cc1", "note": "[Talazoparib]", "values": [{"measurement": "percent of control binding at 10 µM", "setting": "MST1R; [1]", "value": 99, "unit": "%"}, {"measurement": "percent of control binding at 10 µM", "setting": "ERK1; [1]", "value": 87, "unit": "%"}, {"measurement": "percent of control binding at 10 µM", "setting": "GAK; [1]", "value": 100, "unit": "%"}, {"measurement": "percent of control binding at 10 µM", "setting": "EPHA3; [1]", "value": 100, "unit": "%"}]}
{"smiles": "O=C(c1cc(Cc2n[nH]c(=O)c3ccccc23)ccc1F)N1CCN(C(=O)C2CC2)CC1", "note": "[Olaparib]", "values": [{"measurement": "percent of control binding at 10 µM", "setting": "MST1R; [2]", "value": 84, "unit": "%"}, {"measurement": "percent of control binding at 10 µM", "setting": "ERK1; [2]", "value": 98, "unit": "%"}, {"measurement": "percent of control binding at 10 µM", "setting": "GAK; [2]", "value": 100, "unit": "%"}, {"measurement": "percent of control binding at 10 µM", "setting": "EPHA3; [2]", "value": 100, "unit": "%"}]}
{"smiles": "NC(=O)c1cccc2cn(-c3ccc([C@@H]4CCCNC4)cc3)nc12", "note": "[Niraparib]", "values": [{"measurement": "percent of control binding at 10 µM", "setting": "MST1R; [3]", "value": 88, "unit": "%"}, {"measurement": "percent of control binding at 10 µM", "setting": "ERK1; [3]", "value": 98, "unit": "%"}, {"measurement": "percent of control binding at 10 µM", "setting": "GAK; [3]", "value": 58, "unit": "%"}, {"measurement": "percent of control binding at 10 µM", "setting": "EPHA3; [3]", "value": 81, "unit": "%"}]}
{"smiles": "CNCc1ccc(-c2[nH]c3cc(F)cc4c3c2CCNC4=O)cc1", "note": "[Rucaparib]", "values": [{"measurement": "percent of control binding at 10 µM", "setting": "MST1R; [4]", "value": 91, "unit": "%"}, {"measurement": "percent of control binding at 10 µM", "setting": "ERK1; [4]", "value": 100, "unit": "%"}, {"measurement": "percent of control binding at 10 µM", "setting": "GAK; [4]", "value": 35, "unit": "%"}, {"measurement": "percent of control binding at 10 µM", "setting": "EPHA3; [4]", "value": 88, "unit": "%"}]}
